The source made the active and inactive calls. No cut-off for these calls is given here.
Experiments:
[1] = biological target: T1, Sigma intracellular receptor 2 (Rattus norvegicus, UniProt Q5U3Y7); assay: Displacement of [3H]-di-o-tolylguanidine from sigma2 receptor in rat liver membranes incubated for 120 mins in the presence of sigma1 receptor ligand (+)-pentazocine by scintillation counting method; type: cell membranes
T1 sequence (Q5U3Y7 whole entry): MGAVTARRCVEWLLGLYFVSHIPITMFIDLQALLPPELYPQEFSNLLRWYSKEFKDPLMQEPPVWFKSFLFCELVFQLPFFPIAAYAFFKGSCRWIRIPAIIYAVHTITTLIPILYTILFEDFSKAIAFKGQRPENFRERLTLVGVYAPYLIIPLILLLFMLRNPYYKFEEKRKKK

[2] = biological target: Sigma non-opioid intracellular receptor 1 (Homo sapiens, UniProt Q99720); assay: Displacement of [3H](+)-pentazocine from sigma 1 receptor in human RPMI8226 cell membranes incubated for 2 hrs under shaking by scintillation counting analysis
Sequence of Sigma non-opioid intracellular receptor 1 (Q99720 whole entry): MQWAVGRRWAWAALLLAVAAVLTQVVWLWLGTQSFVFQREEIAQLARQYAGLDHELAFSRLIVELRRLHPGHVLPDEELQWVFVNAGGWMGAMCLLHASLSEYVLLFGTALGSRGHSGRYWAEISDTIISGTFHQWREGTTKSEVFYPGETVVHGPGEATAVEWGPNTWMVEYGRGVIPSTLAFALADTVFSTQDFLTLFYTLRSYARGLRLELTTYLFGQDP

[3] = biological target: Delta-type opioid receptor (Rattus norvegicus, UniProt P33533); assay: Displacement of [3H]DPDPE from delta opioid receptor in rat membranes after 120 mins by scintillation counting analysis; type: cell membranes
Sequence of Delta-type opioid receptor (P33533 whole entry): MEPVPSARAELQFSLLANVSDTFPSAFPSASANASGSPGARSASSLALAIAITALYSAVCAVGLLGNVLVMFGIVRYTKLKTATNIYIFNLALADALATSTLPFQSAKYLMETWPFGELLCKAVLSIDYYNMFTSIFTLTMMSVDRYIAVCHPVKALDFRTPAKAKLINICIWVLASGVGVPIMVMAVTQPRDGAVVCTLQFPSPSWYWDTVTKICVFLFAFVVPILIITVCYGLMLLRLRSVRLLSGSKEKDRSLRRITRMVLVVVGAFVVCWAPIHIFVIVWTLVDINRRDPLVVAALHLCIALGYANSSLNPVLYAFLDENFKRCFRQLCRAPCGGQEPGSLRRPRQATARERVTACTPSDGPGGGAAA

[4] = biological target: Kappa-type opioid receptor (Cavia porcellus) (UniProt P41144); assay: Displacement of [3H]U69,593 from kappa opioid receptor in guinea pig brain membrane at 1 uM after 120 mins by scintillation counting analysis relative to control; type: cell membranes
Sequence of Kappa-type opioid receptor (Cavia porcellus) (P41144 whole entry): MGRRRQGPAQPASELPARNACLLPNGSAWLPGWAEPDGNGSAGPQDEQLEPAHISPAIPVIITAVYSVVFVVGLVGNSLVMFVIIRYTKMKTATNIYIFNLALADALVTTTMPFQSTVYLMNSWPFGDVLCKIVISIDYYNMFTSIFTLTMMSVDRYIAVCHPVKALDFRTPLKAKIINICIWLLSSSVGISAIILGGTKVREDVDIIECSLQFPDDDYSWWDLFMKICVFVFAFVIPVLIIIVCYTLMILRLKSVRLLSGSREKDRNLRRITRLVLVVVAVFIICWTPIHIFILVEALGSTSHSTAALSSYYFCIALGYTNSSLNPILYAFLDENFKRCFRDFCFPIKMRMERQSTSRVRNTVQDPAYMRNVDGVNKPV

Sus scrofa = species: Sus scrofa; assay: Displacement of [3H]-(+)-MK-801 from PCP binding site of NMDA receptor in pig brain cortex membranes up to 1 uM after 120 mins by scintillation counting analysis; type: cell membranes
HepG2 = assay: Cytotoxicity against human HepG2 cells at 1 to 100 uM incubated for 20 hrs under serum free condition by neutral red uptake assay; type: cell-based; details: hepg2, 20 h
Cytochrome P450 1A2 = biological target: T2, Cytochrome P450 1A2 (Homo sapiens, UniProt P05177); assay: Inhibition of recombinant human CYP1A2 at 1 uM by fluorescence assay; type: ADME; details: recombinant enzyme
T2 sequence (P05177 whole entry): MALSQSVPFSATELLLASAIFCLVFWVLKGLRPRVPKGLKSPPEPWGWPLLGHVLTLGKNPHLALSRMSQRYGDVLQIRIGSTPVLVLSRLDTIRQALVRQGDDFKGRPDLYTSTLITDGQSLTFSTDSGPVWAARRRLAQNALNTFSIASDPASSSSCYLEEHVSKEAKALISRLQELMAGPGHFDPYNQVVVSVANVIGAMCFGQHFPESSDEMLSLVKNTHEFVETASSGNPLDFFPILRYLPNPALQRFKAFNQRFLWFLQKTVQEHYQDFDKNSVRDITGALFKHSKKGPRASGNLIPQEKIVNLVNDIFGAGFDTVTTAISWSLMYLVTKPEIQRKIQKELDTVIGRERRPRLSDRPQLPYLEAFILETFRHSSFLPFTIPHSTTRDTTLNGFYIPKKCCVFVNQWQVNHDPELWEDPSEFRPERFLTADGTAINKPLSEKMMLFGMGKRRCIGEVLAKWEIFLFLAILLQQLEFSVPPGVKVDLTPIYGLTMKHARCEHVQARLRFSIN

Cytochrome P450 2C9 = Cytochrome P450 2C9 (Homo sapiens, UniProt P11712); assay: Inhibition of recombinant human CYP2C9 at 1 uM by fluorescence assay; type: ADME; details: recombinant enzyme
Sequence of Cytochrome P450 2C9 (P11712 whole entry): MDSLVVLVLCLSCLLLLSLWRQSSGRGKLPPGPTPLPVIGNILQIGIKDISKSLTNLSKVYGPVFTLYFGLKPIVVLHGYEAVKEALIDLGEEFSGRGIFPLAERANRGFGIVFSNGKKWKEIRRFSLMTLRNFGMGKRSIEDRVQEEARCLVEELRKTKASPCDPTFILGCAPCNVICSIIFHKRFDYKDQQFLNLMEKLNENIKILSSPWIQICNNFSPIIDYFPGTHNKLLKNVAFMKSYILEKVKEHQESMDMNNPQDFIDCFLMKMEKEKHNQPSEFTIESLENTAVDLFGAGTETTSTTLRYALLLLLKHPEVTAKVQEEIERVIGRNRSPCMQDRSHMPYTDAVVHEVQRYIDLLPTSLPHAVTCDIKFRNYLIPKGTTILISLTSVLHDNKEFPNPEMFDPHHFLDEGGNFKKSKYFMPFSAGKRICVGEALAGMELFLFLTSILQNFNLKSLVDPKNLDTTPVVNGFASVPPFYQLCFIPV

Cytochrome P450 2C19 = Cytochrome P450 2C19 (Homo sapiens, UniProt P33261); assay: Inhibition of recombinant human CYP2C19 at 1 uM by fluorescence assay; type: ADME; details: recombinant enzyme
Sequence of Cytochrome P450 2C19 (P33261 whole entry): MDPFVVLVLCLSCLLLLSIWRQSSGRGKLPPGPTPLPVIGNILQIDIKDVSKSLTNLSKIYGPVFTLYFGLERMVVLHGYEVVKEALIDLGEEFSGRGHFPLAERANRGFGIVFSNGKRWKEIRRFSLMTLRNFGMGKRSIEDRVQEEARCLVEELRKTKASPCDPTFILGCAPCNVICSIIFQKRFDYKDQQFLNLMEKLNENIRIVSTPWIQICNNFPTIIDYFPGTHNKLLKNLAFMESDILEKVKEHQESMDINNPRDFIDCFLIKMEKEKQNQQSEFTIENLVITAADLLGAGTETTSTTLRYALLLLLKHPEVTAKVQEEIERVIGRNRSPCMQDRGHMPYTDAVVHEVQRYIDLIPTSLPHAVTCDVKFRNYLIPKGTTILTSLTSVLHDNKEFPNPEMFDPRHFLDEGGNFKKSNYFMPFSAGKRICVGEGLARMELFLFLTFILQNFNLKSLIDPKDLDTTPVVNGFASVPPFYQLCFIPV

[5] = biological target: Sodium-dependent dopamine transporter (Homo sapiens) (UniProt Q01959); assay: Binding affinity to dopamine transporter (unknown origin) at 1 uM
Sequence of Sodium-dependent dopamine transporter (Homo sapiens) (Q01959 whole entry): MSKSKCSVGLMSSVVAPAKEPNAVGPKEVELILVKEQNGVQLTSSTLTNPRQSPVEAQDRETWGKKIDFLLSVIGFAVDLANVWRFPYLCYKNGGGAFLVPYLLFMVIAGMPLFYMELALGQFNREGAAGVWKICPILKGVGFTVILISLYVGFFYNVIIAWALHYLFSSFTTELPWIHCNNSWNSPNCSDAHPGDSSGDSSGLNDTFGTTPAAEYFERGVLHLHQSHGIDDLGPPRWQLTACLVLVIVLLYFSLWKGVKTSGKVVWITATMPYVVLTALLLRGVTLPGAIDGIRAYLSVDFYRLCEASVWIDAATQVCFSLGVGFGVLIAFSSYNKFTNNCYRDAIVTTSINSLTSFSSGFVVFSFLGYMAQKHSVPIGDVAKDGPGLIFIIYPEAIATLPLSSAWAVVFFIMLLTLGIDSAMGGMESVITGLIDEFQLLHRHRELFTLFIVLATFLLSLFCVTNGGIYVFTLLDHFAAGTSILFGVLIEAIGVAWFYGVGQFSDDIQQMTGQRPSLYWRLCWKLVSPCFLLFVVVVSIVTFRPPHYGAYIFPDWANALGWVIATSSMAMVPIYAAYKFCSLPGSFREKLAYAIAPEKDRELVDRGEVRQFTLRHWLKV

COC1Cc2ccccc2[C@]2(CC[C@H](N(C)CC3CCCCC3)CC2)O1 (stereo not given in full)
Ki [1]: 12 nM
Ki [2]: 7.3 nM
Ki [3]: 364 nM
inhibition [4]: 0%
Activity (Sus scrofa): inactive
Activity (HepG2): Non-Toxic
inhibition (INH) (Cytochrome P450 1A2): Not Active
inhibition (INH) (Cytochrome P450 2C9): Not Active
inhibition (INH) (Cytochrome P450 2C19): Not Active
Activity [5]: inactive

Reference: ChEMBL document CHEMBL4385605, “Synthesis and Structure-Affinity Relationships of Spirocyclic Benzopyrans with Exocyclic Amino Moiety” (J Med Chem, 2019)
